The subject of this assay is Human Cav2.3 channel. The experiment in a line: Human Cav2.3 channel calcium-influx assay. Format: cell-based. To be noted: Fluo8 fluorescence, HEK-293 T-Rex/Kir2.1/Cav2.3e cells, without pluronic acid. The method in brief:
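Signal = peak fluorescence (5–130 s) minus baseline (1–2 s), normalized to neutral (0) and inhibitor (−100) controls as % effect. Depolarization used final 20 mM KCl, 130 mM NaCl, 2 mM CaCl2, after 3 min RT compound exposure (30 μM top, half-log, 8 points, 0.3% DMSO) in doxycycline-induced HEK-293 T-Rex/Kir2.1/Cav2.3e-β4-α2δ1 cells with Fluo8 NW.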
`CCN([C@@H](c1ccccc1F)C(F)(F)F)S(=O)(=O)c1cncc(C#N)c1` [Example 117, (S)-5-cyano-N-ethyl-N-(2,2,2-trifluoro-1-(2-fluorophenyl)ethyl)pyridine-3-sulfonamide]: the “Cav2.3 (pIC50)” value was 5.38.

With `CCN(C(c1ccc(OC)cc1)C(F)(F)F)S(=O)(=O)C1CCOCC1` (stereo not shown) [Example 124, N-ethyl-N-(2,2,2-trifluoro-1-(4-methoxyphenyl)ethyl)tetrahydro-2H-pyran-4-sulfonamide], the “Cav2.3 (pIC50)” value was 6.11.

As for `COc1ccc(C(N(C)S(=O)(=O)C2CCOCC2)C(F)(F)F)cc1` (stereo not shown) [Example 125, N-methyl-N-(2,2,2-trifluoro-1-(4-methoxyphenyl)ethyl)tetrahydro-2H-pyran-4-sulfonamide], the “Cav2.3 (pIC50)” value worked out at 5.37.

Turning to `CN([C@@H](c1ccc(F)cc1)C(F)(F)F)S(=O)(=O)C1CCOCC1` [Example 131, (S)—N-methyl-N-(2,2,2-trifluoro-1-(4-fluorophenyl)ethyl)tetrahydro-2H-pyran-4-sulfonamide], the “Cav2.3 (pIC50)” value is listed as 5.12.

Turning to `CN([C@H](c1ccc(F)cc1)C(F)(F)F)S(=O)(=O)C1CCOCC1` [Example 132, (R)—N-methyl-N-(2,2,2-trifluoro-1-(4-fluorophenyl)ethyl)tetrahydro-2H-pyran-4-sulfonamide], the “Cav2.3 (pIC50)” value turned out to be 6.05.

Take `CCN([C@H](c1ccc(Cl)cc1)C(F)(F)F)S(=O)(=O)c1cncnc1` [Example 134, (R)—N-(1-(4-chlorophenyl)-2,2,2-trifluoroethyl)-N-ethylpyrimidine-5-sulfonamide]: the “Cav2.3 (pIC50)” value came out at 7.65.

As for `CCN(C(c1ccc(F)cc1)C(F)(F)F)S(=O)(=O)c1ccn2ccnc2c1` (stereo not shown) [Example 135, N-ethyl-N-(2,2,2-trifluoro-1-(4-fluorophenyl)ethyl)imidazo[1,2-a]pyridine-7-sulfonamide], the “Cav2.3 (pIC50)” value is on record as 6.76.

Consider `CCN([C@H](c1ccc(F)cc1)C(F)(F)F)S(=O)(=O)c1ccn2cnnc2c1` [Example 138, (R)—N-ethyl-N-(2,2,2-trifluoro-1-(4-fluorophenyl)ethyl)-[1,2,4]triazolo[4,3-a]pyridine-7-sulfonamide], for which the “Cav2.3 (pIC50)” value is listed as 6.78.

As to `CCNc1nc2ccc(S(=O)(=O)N(CC)[C@H](c3ccc(F)cc3)C(F)(F)F)cc2s1` [Example 139, (R)—N-ethyl-2-(ethylamino)-N-(2,2,2-trifluoro-1-(4-fluorophenyl)ethyl)benzo[d]thiazole-6-sulfonamide], the “Cav2.3 (pIC50)” value worked out at 6.31.

`CCN([C@H](c1ccc(F)cc1)C(F)(F)F)S(=O)(=O)c1cnc2cc[nH]c2c1` [Example 149, (R)—N-ethyl-N-(2,2,2-trifluoro-1-(4-fluorophenyl)ethyl)-1H-pyrrolo[3,2-b]pyridine-6-sulfonamide]: the “Cav2.3 (pIC50)” value is 6.61.

With `CCN([C@H](c1ccc(F)cc1)C(F)(F)F)S(=O)(=O)c1cc2nncn2cn1` [Example 152, (R)—N-ethyl-N-(2,2,2-trifluoro-1-(4-fluorophenyl)ethyl)-[1,2,4]triazolo[4,3-c]pyrimidine-7-sulfonamide], the “Cav2.3 (pIC50)” value was determined as 6.51.

Consider `CCN([C@H](c1ccc(F)cc1)C(F)(F)F)S(=O)(=O)c1ccc2nc(N)sc2c1` [Example 154, (R)-2-amino-N-ethyl-N-(2,2,2-trifluoro-1-(4-fluorophenyl)ethyl)benzo[d]thiazole-6-sulfonamide], for which the “Cav2.3 (pIC50)” value was found to be 6.70.

For the compound `CCN([C@H](c1ccc(F)cc1)C(F)(F)F)S(=O)(=O)c1ccc2cn[nH]c2c1` [Example 159, (R)—N-ethyl-N-(2,2,2-trifluoro-1-(4-fluorophenyl)ethyl)-1H-indazole-6-sulfonamide], the “Cav2.3 (pIC50)” value turned out to be 6.33.

Consider `CCN([C@H](c1ccc(F)cc1)C(F)(F)F)S(=O)(=O)c1ccc2cnn(C)c2c1` [Example 160, (R)—N-ethyl-1-methyl-N-(2,2,2-trifluoro-1-(4-fluorophenyl)ethyl)-1H-indazole-6-sulfonamide], for which the “Cav2.3 (pIC50)” value is 6.06.

On to `CN([C@H](c1ccc(F)cc1)C(F)(F)F)S(=O)(=O)c1ccc2cnn(C)c2c1` [Example 161, (R)—N,1-dimethyl-N-(2,2,2-trifluoro-1-(4-fluorophenyl)ethyl)-1H-indazole-6-sulfonamide], for which the “Cav2.3 (pIC50)” value came out at 6.22.

As to `CCN([C@H](c1ccc(F)cc1)C(F)(F)F)S(=O)(=O)c1ccc2c(c1)OC(F)(F)O2` [Example 162, (R)—N-ethyl-2,2-difluoro-N-(2,2,2-trifluoro-1-(4-fluorophenyl)ethyl)benzo[d][1,3]dioxole-5-sulfonamide], the “Cav2.3 (pIC50)” value was determined as 6.01.

Regarding `CN([C@H](c1ccc(F)cc1)C(F)(F)F)S(=O)(=O)c1ccc2c(c1)OC(F)(F)O2` [Example 163, (R)-2,2-difluoro-N-methyl-N-(2,2,2-trifluoro-1-(4-fluorophenyl)ethyl)benzo[d][1,3]dioxole-5-sulfonamide], the “Cav2.3 (pIC50)” value came to 5.76.

In the case of `CCN([C@H](c1ccc(F)cc1)C(F)(F)F)S(=O)(=O)c1ccc2nncn2n1` [Example 192, (R)—N-ethyl-N-(2,2,2-trifluoro-1-(4-fluorophenyl)ethyl)-[1,2,4]triazolo[4,3-b]pyridazine-6-sulfonamide], the “Cav2.3 (pIC50)” value was determined as 6.18.

`CN([C@H](c1ccc(Cl)cc1)C(F)(F)F)S(=O)(=O)c1cnc2[nH]cnc2c1` [Example 193, (R)—N-(1-(4-chlorophenyl)-2,2,2-trifluoroethyl)-N-methyl-3H-imidazo[4,5-b]pyridine-6-sulfonamide]: the “Cav2.3 (pIC50)” value is reported as 6.65.

For the compound `CN([C@H](c1ccc(Cl)cc1)C(F)(F)F)S(=O)(=O)c1ccc2nncn2n1` [Example 205, (R)—N-(1-(4-chlorophenyl)-2,2,2-trifluoroethyl)-N-methyl-[1,2,4]triazolo[4,3-b]pyridazine-6-sulfonamide], the “Cav2.3 (pIC50)” value worked out at 5.89.

In the case of `CN([C@H](c1ccc(Cl)cc1)C(F)F)S(=O)(=O)c1cncc(C#N)c1` [Example 206, (R)—N-(1-(4-chlorophenyl)-2,2-difluoroethyl)-5-cyano-N-methylpyridine-3-sulfonamide], the “Cav2.3 (pIC50)” value amounted to 6.60.

Consider `COc1ccc(S(=O)(=O)N(C)[C@H](c2ccc(Cl)cc2)C(F)(F)F)nn1` [Example 207, (R)—N-(1-(4-chlorophenyl)-2,2,2-trifluoroethyl)-6-methoxy-N-methylpyridazine-3-sulfonamide], for which the “Cav2.3 (pIC50)” value came to 6.02.

On to `CN([C@H](c1ccc(Cl)cc1)C(F)(F)F)S(=O)(=O)c1cnc2cccnn12` [Example 210, (R)—N-(1-(4-chlorophenyl)-2,2,2-trifluoroethyl)-N-methylimidazo[1,2-b]pyridazine-3-sulfonamide], for which the “Cav2.3 (pIC50)” value came out at 6.85.

Take `CN([C@H](c1ccc(C(F)(F)F)cc1)C(F)(F)F)S(=O)(=O)c1cnc2cccnn12` [Example 211, (R)—N-methyl-N-(2,2,2-trifluoro-1-(4-(trifluoromethyl)phenyl)ethyl)imidazo[1,2-b]pyridazine-3-sulfonamide]: the “Cav2.3 (pIC50)” value stood at 7.17.

In the case of `CCN([C@H](c1ccc(C(F)(F)F)cc1)C(F)(F)F)S(=O)(=O)c1cnc2cccnn12` [Example 212, (R)—N-ethyl-N-(2,2,2-trifluoro-1-(4-(trifluoromethyl)phenyl)ethyl)imidazo[1,2-b]pyridazine-3-sulfonamide], the “Cav2.3 (pIC50)” value was found to be 6.80.

For the compound `CN([C@@H](CF)c1ccc(Cl)cc1)S(=O)(=O)c1cncc(C#N)c1` [Example 213, (R)—N-(1-(4-chlorophenyl)-2-fluoroethyl)-5-cyano-N-methylpyridine-3-sulfonamide], the “Cav2.3 (pIC50)” value is 6.07.

For `CN([C@H](c1ccc(C(F)(F)F)cc1)C(F)(F)F)S(=O)(=O)c1cnc2ncccn12` [Example 214, (R)—N-methyl-N-(2,2,2-trifluoro-1-(4-(trifluoromethyl)phenyl)ethyl)imidazo[1,2-a]pyrimidine-3-sulfonamide], the “Cav2.3 (pIC50)” value turned out to be 6.95.

As for `CN([C@H](c1ccc(C(F)(F)F)cc1)C(F)(F)F)S(=O)(=O)c1ccn2ncnc2c1` [Example 215, (R)—N-methyl-N-(2,2,2-trifluoro-1-(4-(trifluoromethyl)phenyl)ethyl)-[1,2,4]triazolo[1,5-a]pyridine-7-sulfonamide], the “Cav2.3 (pIC50)” value is 7.15.

`CCN([C@H](c1ccc(C(F)(F)F)cc1)C(F)(F)F)S(=O)(=O)c1ccn2ncnc2c1` [Example 216, (R)—N-ethyl-N-(2,2,2-trifluoro-1-(4-(trifluoromethyl)phenyl)ethyl)-[1,2,4]triazolo[1,5-a]pyridine-7-sulfonamide]: the “Cav2.3 (pIC50)” value is reported as 7.29.

For the compound `CN([C@H](c1ccc(C(F)(F)F)cc1)C(F)(F)F)S(=O)(=O)c1cncc(F)c1` [Example 224, (R)-5-fluoro-N-methyl-N-(2,2,2-trifluoro-1-(4-(trifluoromethyl)phenyl)ethyl)pyridine-3-sulfonamide], the “Cav2.3 (pIC50)” value was 6.85.

For `Cc1ccc([C@@H](N(C)S(=O)(=O)c2cncnc2)C(F)(F)F)cc1` [Example 226, (R)—N-methyl-N-(2,2,2-trifluoro-1-(p-tolyl)ethyl)pyrimidine-5-sulfonamide], the “Cav2.3 (pIC50)” value turned out to be 6.79.

On to `COc1cc(S(=O)(=O)N(C)[C@H](c2ccc(Cl)cc2)C(F)(F)F)cnn1` [Example 229, (R)—N-(1-(4-chlorophenyl)-2,2,2-trifluoroethyl)-6-methoxy-N-methylpyridazine-4-sulfonamide], for which the “Cav2.3 (pIC50)” value is listed as 6.93.

In the case of `CN([C@H](c1ccc(Cl)cc1)C(F)(F)F)S(=O)(=O)c1cnc2ncccn12` [Example 230, (R)—N-(1-(4-chlorophenyl)-2,2,2-trifluoroethyl)-N-methylimidazo[1,2-a]pyrimidine-3-sulfonamide], the “Cav2.3 (pIC50)” value was 7.00.

Consider `CN([C@H](c1ccc(C(F)(F)F)cc1)C(F)(F)F)S(=O)(=O)c1ccc2ncc(Cl)n2c1` [Example 233, (R)-3-chloro-N-methyl-N-(2,2,2-trifluoro-1-(4-(trifluoromethyl)phenyl)ethyl)imidazo[1,2-a]pyridine-6-sulfonamide], for which the “Cav2.3 (pIC50)” value is recorded as 5.91.

Values taken from US20250115569A1, “SULFONAMIDE COMPOUNDS FOR THE TREATMENT OF NEUROLOGICAL CONDITIONS” (LARIO THERAPEUTICS LIMITED, priority 2021, published 2025).
